Measured values from patent US9512420B2, “Use of N-acetylneuraminic acid aldolase in catalytic synthesis of N-acetylneuraminic acid” (Nanjing University of Technology, priority 2013, dated 2016).

Experiments:
[1] = molecular target: CgNal (Corynebacterium glutamicum, UniProt Q8NMD2); assay: Effects of metal ions and surfactant on the CgNal activity; assay type: biochemical, Corynebacterium glutamicum ATCC 13032; conditions: for effect on reaction of CgNal in the decomposing Neu5Ac direction / effect on reaction of CgNal in the synthesizing Neu5Ac direction: pH 7.5; for overall effect on CgNal enzyme activity / effect on superiority of Neu5Ac synthesis over Neu5Ac decomposition: pH 8.5
[2] = substrate: CC(=O)C(=O)O; assay: purified protein, by the assay type; conditions: substrate of CgNal, co-substrate fixed at 100 mM for ManNAc and pyruvic acid, 37.0 °C
[3] = substrate: CC(=O)N[C@@H]1C(O)O[C@H](CO)[C@@H](O)[C@@H]1O; assay: purified protein, by the assay type; conditions: substrate of CgNal, co-substrate fixed at 100 mM for ManNAc and pyruvic acid, 37.0 °C
[4] = substrate: CC(=O)N[C@H]1[C@H]([C@H](O)[C@H](O)CO)OC(O)(C(=O)O)C[C@@H]1O; assay: purified protein, by the assay type; conditions: substrate of CgNal, co-substrate fixed at 100 mM for ManNAc and pyruvic acid, 37.0 °C

**Q.** Which results are given for `CCCCCCCCCCCCCCCC[N+](C)(C)C.[Br-]` [CTAB]?
**A.** effect on reaction of CgNal in the decomposing Neu5Ac direction [1]: inhibited; overall effect on CgNal enzyme activity [1]: decreased the enzyme activity

**Q.** `CCCCCCCCCCCCOS(=O)(=O)[O-].[Na+]` [SDS] was tested. Which “effect on reaction of CgNal in the decomposing Neu5Ac direction” value (from here on “effect … in the decomposing Neu5Ac direction”) ([1]; 5 mM additive) did it give?
**A.** inhibited

**Q.** What about the “effect on reaction of CgNal in the synthesizing Neu5Ac direction” value ([1]; 5 mM additive) of the same molecule?
**A.** promoted

**Q.** And the “effect on superiority of Neu5Ac synthesis over Neu5Ac decomposition” value ([1]; 5 mM additive)?
**A.** promoted

**Q.** And the “overall effect on CgNal enzyme activity” value ([1]; 5 mM additive)?
**A.** decreased the enzyme activity

**Q.** Which “effect … in the decomposing Neu5Ac direction” value [1] does the source give for CoCl2 here?
**A.** inhibited

**Q.** And the “effect on reaction of CgNal in the synthesizing Neu5Ac direction” value [1]?
**A.** promoted

**Q.** With NiSO4 as the molecule, how does the “effect … in the decomposing Neu5Ac direction” value [1] read?
**A.** inhibited

**Q.** And the “effect on reaction of CgNal in the synthesizing Neu5Ac direction” value [1]?
**A.** promoted

**Q.** How did the “effect … in the decomposing Neu5Ac direction” value [1] turn out when ZnCl2 was run?
**A.** inhibited

**Q.** And the “effect on reaction of CgNal in the synthesizing Neu5Ac direction” value [1]?
**A.** promoted

**Q.** What about the “effect on superiority of Neu5Ac synthesis over Neu5Ac decomposition” value [1] of the same molecule?
**A.** promoted

**Q.** And the “overall effect on CgNal enzyme activity” value [1]?
**A.** decreased the enzyme activity

B1: CgNal (Corynebacterium glutamicum ATCC 13032) (protein)
chain: MASATFTGVIPPVMTPLHADGSVDVESLRKLVDHLINGGVDGLFALGSSGEAAFLTRAQRKLALTTIIEHTAGRVPVTAGVIETTTARVIELVEDALEAGAEGLVATAPFYTRTHDVEIEEHFRKIHAAAPELPLFAYNIPVSVHSNLNPVMLLTLAKDGVLAGTKDSSGNDGAIRSLIEARDDAGLTEQFKILTGSETTVDFAYLAGADGVVPGLGNVDPAAYAALAKLCLDGKWAEAAALQKRINHLFHIVFVGDTSHMSGSSAGLGGFKTALAHLGIIESNAMAVPHQSLSDEETARIHAIVDEFLYTA
**Q.** With B1 as the molecule, how does the Km ([2]; other: pH 7.5, pH 7.5) read?
**A.** 14.7 mM

**Q.** And the Vmax ([2]; other: pH 7.5, pH 7.5)?
**A.** 10.98 U/mg

**Q.** And the Km ([2]; other: pH 8.5, pH 8.5)?
**A.** 72.4 mM

**Q.** And the Vmax ([2]; other: pH 8.5, pH 8.5)?
**A.** 76.64 U/mg

**Q.** And the Km ([3]; other: pH 7.5, pH 7.5)?
**A.** 53.3 mM

**Q.** And the Vmax ([3]; other: pH 7.5, pH 7.5)?
**A.** 10.2 U/mg

**Q.** What about the Km ([3]; other: pH 8.5, pH 8.5) of the same molecule?
**A.** 92.1 mM

**Q.** And the Vmax ([3]; other: pH 8.5, pH 8.5)?
**A.** 73.2 U/mg

**Q.** What about the Km ([4]; other: pH 7.5, pH 7.5) of the same molecule?
**A.** 33.5 mM

**Q.** And the Vmax ([4]; other: pH 7.5, pH 7.5)?
**A.** 16.74 U/mg

**Q.** And the Km ([4]; other: pH 8.5, pH 8.5)?
**A.** 87.7 mM

**Q.** And the Vmax ([4]; other: pH 8.5, pH 8.5)?
**A.** 79.6 U/mg
